# Laboratory results: ChEMBL document CHEMBL1138310, “Effect of structural and conformation modifications, including backbone cyclization, of hydrophilic hexapeptides on their intestinal permeability and enzymatic stability” (J Med Chem, 2007)
# *1 amine or outer side, *2 acyl side, *3 side chain or, on linkers, in order; H or OH if unused. Where a SMILES comes first, the peptide text is derived from it. Bridges are numbered along the chain shown (N, C = ends). [ ]: non-standard residue; d: D form. Phe(Nα-(CH2)3CO) = O=C([C@H](Cc1ccccc1)N(CCCC(=O)[*:3])[*:1])[*:2]; Phe(Nα-CH2CH2CO) = O=C([C@H](Cc1ccccc1)N(CCC(=O)[*:3])[*:1])[*:2]; N(2-aminoethyl)Phe = O=C([C@H](Cc1ccccc1)N(CCN[*:3])[*:1])[*:2]; NMeF = CN[C@@H](Cc1ccccc1)C(=O)O; Sar = CNCC(=O)O
# Columns and labels:
# [1] = Metabolic stability in rat brush border vesicles; assay type: ADME
# [2] = tested on: Intestine; test: Apparent permeability across rat small intestine; assay type: ADME, tissue-based
# [3] = Apparent permeability across Caco-2 cells; assay type: ADME, cell-based; settings: human
# [4] = Permeability in biomimetic membrane layer DMPC vesicles assessed as decrease in fluorescence at 30 uM by colorimetric mixed-vesicle assay; assay type: ADME, cell membranes
# [5] = Lipophilicity, log D in octanol at pH 7.4; assay type: physicochemical
# [6] = Apparent permeability across Caco-2 cells via paracellular pathway; assay type: ADME, cell-based; settings: human
# [7] = Permeability across artificial membrane by PAMPA model; assay type: ADME; settings: read-out: permeability
structure (smiles),measurement,setting,value
C[C@@H]1NC(=O)[C@H](C)NC(=O)[C@H](C)NC(=O)[C@H](Cc2ccccc2)NCCC(=O)NCCN([C@@H](Cc2ccccc2)C(N)=O)C(=O)CNC1=O (H-[Phe(Nα-CH2CH2CO)]AAAG[N(2-aminoethyl)Phe]-NH2; lactam 1-6),Stability,[1],Stable
same,Papp,[2],6.16 ×10⁻⁶ cm/s
same,Papp,[3],3.47 ×10⁻⁶ cm/s
NC(=O)[C@H](Cc1ccccc1)N1CCNC(=O)CCN[C@@H](Cc2ccccc2)C(=O)NCC(=O)NCC(=O)NCC(=O)NCC1=O (H-[Phe(Nα-CH2CH2CO)]GGGG[N(2-aminoethyl)Phe]-NH2; lactam 1-6),Stability,[1],Stable
same,permeability,[4],40%
same,logD,[5],-0.41
same,Papp,[3],5.43 ×10⁻⁶ cm/s
CN1CC(=O)NCC(=O)NCC(=O)NCC(=O)N([C@@H](Cc2ccccc2)C(N)=O)CCNC(=O)CCN[C@@H](Cc2ccccc2)C1=O (H-[Phe(Nα-CH2CH2CO)][Sar]GGG[N(2-aminoethyl)Phe]-NH2; lactam 1-6),Stability,[1],Stable
same,Papp,[6],7.58 ×10⁻⁶ cm/s
same,permeability,[4],35%
same,Papp,[2],4.58 ×10⁻⁶ cm/s
same,logD,[5],-0.57
same,Papp,[3],2.22 ×10⁻⁶ cm/s
C[C@@H]1NC(=O)[C@H](C)NC(=O)[C@H](Cc2ccccc2)NCCC(=O)NCCN([C@@H](Cc2ccccc2)C(N)=O)C(=O)CNC(=O)CNC1=O (H-[Phe(Nα-CH2CH2CO)]AAGG[N(2-aminoethyl)Phe]-NH2; lactam 1-6),Stability,[1],Stable
same,Papp,[2],5.26 ×10⁻⁶ cm/s
same,Papp,[3],3.22 ×10⁻⁶ cm/s
C[C@@H]1NC(=O)[C@H](Cc2ccccc2)NCCC(=O)NCCN([C@@H](Cc2ccccc2)C(N)=O)C(=O)CNC(=O)CNC(=O)CNC1=O (H-[Phe(Nα-CH2CH2CO)]AGGG[N(2-aminoethyl)Phe]-NH2; lactam 1-6),Stability,[1],Stable
same,Papp,[2],3.89 ×10⁻⁶ cm/s
same,Papp,[3],1.9 ×10⁻⁶ cm/s
CN[C@@H](Cc1ccccc1)C(=O)NCC(=O)NCC(=O)NCC(=O)NCC(=O)N(C)[C@@H](Cc1ccccc1)C(N)=O (H-[NMeF]GGGG[NMeF]-NH2),permeability,[4],40%
same,Papp,[2],0.73 ×10⁻⁶ cm/s
same,Papp,[3],1.82 ×10⁻⁶ cm/s
C[C@H](NC(=O)[C@H](C)NC(=O)[C@H](Cc1ccccc1)NCCC(=O)O)C(=O)N[C@@H](C)C(=O)N[C@@H](C)C(=O)N(CCN)[C@@H](Cc1ccccc1)C(N)=O (H-[Phe(Nα-CH2CH2CO)]AAAA[N(2-aminoethyl)Phe]-NH2),Papp,[2],0.67 ×10⁻⁶ cm/s
same,Papp,[3],0.2 ×10⁻⁶ cm/s
OC[C@@H](O)[C@@H](O)[C@H](O)[C@H](O)CO [MANNITOL],Papp,[2],5 ×10⁻⁶ cm/s
same,Papp,[3],2.2 ×10⁻⁶ cm/s
CN1CC(=O)NCC(=O)NCC(=O)N([C@@H](Cc2ccccc2)C(N)=O)CCNC(=O)CCN[C@@H](Cc2ccccc2)C(=O)N(C)CC1=O (H-[Phe(Nα-CH2CH2CO)][Sar][Sar]GG[N(2-aminoethyl)Phe]-NH2; lactam 1-6),Stability,[1],Stable
same,Papp,[2],3.94 ×10⁻⁶ cm/s
same,Papp,[3],2.45 ×10⁻⁶ cm/s
NC(=O)[C@H](Cc1ccccc1)N1CCNC(=O)CCCCN[C@@H](Cc2ccccc2)C(=O)NCC(=O)NCC(=O)NCC(=O)NCC1=O,Stability,[1],Stable
same,Papp,[2],5.02 ×10⁻⁶ cm/s
same,Papp,[3],1.5 ×10⁻⁶ cm/s
CN[C@@H](Cc1ccccc1)C(=O)N(C)CC(=O)N(C)CC(=O)NCC(=O)NCC(=O)N(C)[C@@H](Cc1ccccc1)C(N)=O (H-[NMeF][Sar][Sar]GG[NMeF]-NH2),Papp,[2],1 ×10⁻⁶ cm/s
same,Papp,[3],0.46 ×10⁻⁶ cm/s
CN1CC(=O)N(C)CC(=O)N([C@@H](Cc2ccccc2)C(N)=O)CCNC(=O)CCN[C@@H](Cc2ccccc2)C(=O)N(C)CC(=O)N(C)CC1=O (H-[Phe(Nα-CH2CH2CO)][Sar][Sar][Sar][Sar][N(2-aminoethyl)Phe]-NH2; lactam 1-6),Stability,[1],Stable
same,Papp,[2],4.87 ×10⁻⁶ cm/s
same,Papp,[3],1.56 ×10⁻⁶ cm/s
CN[C@@H](Cc1ccccc1)C(=O)N(C)CC(=O)NCC(=O)NCC(=O)NCC(=O)N(C)[C@@H](Cc1ccccc1)C(N)=O (H-[NMeF][Sar]GGG[NMeF]-NH2),Papp,[6],1.74 ×10⁻⁶ cm/s
same,permeability,[4],35%
same,Papp,[2],0.75 ×10⁻⁶ cm/s
same,Papp,[3],0.58 ×10⁻⁶ cm/s
NC(=O)[C@H](Cc1ccccc1)N1CCNC(=O)CCCN[C@@H](Cc2ccccc2)C(=O)NCC(=O)NCC(=O)NCC(=O)NCC1=O (H-[Phe(Nα-(CH2)3CO)]GGGG[N(2-aminoethyl)Phe]-NH2; lactam 1-6),Stability,[1],Stable
same,Papp,[2],4.2 ×10⁻⁶ cm/s
same,Papp,[3],2.73 ×10⁻⁶ cm/s
Nc1nc2c(ncn2COCCO)c(=O)[nH]1 [ACYCLOVIR],Papp,[7],0.01 ×10⁻⁶ cm/s
CN[C@@H](Cc1ccccc1)C(=O)N[C@@H](C)C(=O)N[C@@H](C)C(=O)NCC(=O)NCC(=O)N(C)[C@@H](Cc1ccccc1)C(N)=O (H-[NMeF]AAGG[NMeF]-NH2),Papp,[2],0.99 ×10⁻⁶ cm/s
same,Papp,[3],0.87 ×10⁻⁶ cm/s
C[C@@H]1NC(=O)[C@H](C)NC(=O)[C@H](Cc2ccccc2)NCCC(=O)NCCN([C@@H](Cc2ccccc2)C(N)=O)C(=O)[C@H](C)NC(=O)[C@H](C)NC1=O (H-[Phe(Nα-CH2CH2CO)]AAAA[N(2-aminoethyl)Phe]-NH2; lactam 1-6),Stability,[1],Stable
same,Papp,[2],5.63 ×10⁻⁶ cm/s
same,logD,[5],0.49
same,Papp,[3],1.47 ×10⁻⁶ cm/s
C[C@]12CC[C@H]3[C@@H](CCC4=CC(=O)CC[C@@]43C)[C@@H]1CC[C@@H]2O [TESTOSTERONE],Papp,[7],8.67 ×10⁻⁶ cm/s
Cc1cc(=O)n(-c2ccccc2)n1C [ANTIPYRINE],Papp,[7],1.18 ×10⁻⁶ cm/s
CN1CC(=O)NCC(=O)N([C@@H](Cc2ccccc2)C(N)=O)CCNC(=O)CCN[C@@H](Cc2ccccc2)C(=O)N(C)CC(=O)N(C)CC1=O (H-[Phe(Nα-CH2CH2CO)][Sar][Sar][Sar]G[N(2-aminoethyl)Phe]-NH2; lactam 1-6),Stability,[1],Stable
same,Papp,[2],5.63 ×10⁻⁶ cm/s
same,Papp,[3],2.95 ×10⁻⁶ cm/s
